In the supplement of paper PMC10307832:

Key:
Experiment in all cases: relative viability (nuclei count vs DMSO), 5 days (fraction); higher = more cells survive
Idelalisib + Dasatinib = compound: CC[C@H](Nc1ncnc2[nH]cnc12)c1nc2cccc(F)c2c(=O)n1-c1ccccc1 [Idelalisib] + Cc1nc(Nc2ncc(C(=O)Nc3c(C)cccc3Cl)s2)cc(N2CCN(CCO)CC2)n1 [Dasatinib] (partner 0.075 µM)
Procedure, shortened: (§1)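 A single step with final 0.05% Triton X-100, 1% formaldehyde and 1 ug/ml Hoechst fixed the cells and stained nuclei 5 days after treatment. Lung cancer cell lines in 1536-well plates had been treated by pin tool the day after seeding with one drug alone or a fixed anchor-drug dose plus five library-drug doses (not always all listed) in √10 steps, and nuclei were counted on 4× images. Relative viability is the ratio of nuclei in treated wells to nuclei in vehicle wells, taken as the median of duplicate plates.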

Idelalisib + Decitabine = compound: CC[C@H](Nc1ncnc2[nH]cnc12)c1nc2cccc(F)c2c(=O)n1-c1ccccc1 [Idelalisib] + Nc1ncn([C@H]2C[C@H](O)[C@@H](CO)O2)c(=O)n1 [Decitabine] (partner 2 µM)
Procedure, shortened: as §1

Pemetrexed + Navitoclax = compound: Nc1nc2[nH]cc(CCc3ccc(C(=O)N[C@@H](CCC(=O)O)C(=O)O)cc3)c2c(=O)[nH]1 [Pemetrexed] + CC1(C)CCC(c2ccc(Cl)cc2)=C(CN2CCN(c3ccc(C(=O)NS(=O)(=O)c4ccc(N[C@H](CCN5CCOCC5)CSc5ccccc5)c(S(=O)(=O)C(F)(F)F)c4)cc3)CC2)C1 [Navitoclax] (partner 0.5 µM)
Procedure, shortened: as §1

Pemetrexed + Dasatinib = compound: Nc1nc2[nH]cc(CCc3ccc(C(=O)N[C@@H](CCC(=O)O)C(=O)O)cc3)c2c(=O)[nH]1 [Pemetrexed] + Cc1nc(Nc2ncc(C(=O)Nc3c(C)cccc3Cl)s2)cc(N2CCN(CCO)CC2)n1 [Dasatinib] (partner 0.075 µM)
Procedure, shortened: as §1

Cell Line	relative viability (Idelalisib + Dasatinib; first compound 0.04 µM)	relative viability (Idelalisib + Dasatinib; first compound 0.1265 µM)	relative viability (Idelalisib + Dasatinib; first compound 0.4 µM)	relative viability (Idelalisib + Dasatinib; first compound 1.265 µM)	relative viability (Idelalisib + Dasatinib; first compound 4 µM)	relative viability (Idelalisib + Decitabine; first compound 0.04 µM)	relative viability (Idelalisib + Decitabine; first compound 0.1265 µM)	relative viability (Idelalisib + Decitabine; first compound 0.4 µM)	relative viability (Idelalisib + Decitabine; first compound 1.265 µM)	relative viability (Idelalisib + Decitabine; first compound 4 µM)	relative viability (Pemetrexed + Navitoclax; first compound 0.002 µM)	relative viability (Pemetrexed + Navitoclax; first compound 0.006325 µM)	relative viability (Pemetrexed + Navitoclax; first compound 0.02 µM)	relative viability (Pemetrexed + Navitoclax; first compound 0.06325 µM)	relative viability (Pemetrexed + Navitoclax; first compound 0.2 µM)	relative viability (Pemetrexed + Dasatinib; first compound 0.002 µM)	relative viability (Pemetrexed + Dasatinib; first compound 0.006325 µM)	relative viability (Pemetrexed + Dasatinib; first compound 0.02 µM)	relative viability (Pemetrexed + Dasatinib; first compound 0.06325 µM)	relative viability (Pemetrexed + Dasatinib; first compound 0.2 µM)
NCI-H2023	0.625	0.549	0.438	0.487	0.375	0.25	0.236	0.241	0.197	0.208	0.972	1.02	0.991	0.942	0.459	0.506	0.505	0.6	0.433	0.195
Calu-6	–	–	–	–	–	–	–	–	–	–	0.786	0.876	0.897	0.872	0.782	–	–	–	–	–
SW 900	0.497	0.543	0.417	0.543	0.326	0.387	0.415	0.505	0.498	0.377	–	–	–	–	–	0.637	0.602	0.657	0.449	0.477
HOP-62	0.636	0.714	0.547	0.581	0.526	0.277	0.199	0.262	0.231	0.235	1.03	1.01	1.19	0.906	0.894	0.522	0.636	0.659	0.674	0.629
H3255	0.442	0.342	0.386	0.391	0.312	0.902	0.623	0.538	0.721	0.512	0.325	0.508	0.537	0.526	0.464	0.236	0.403	0.429	0.362	0.29
NCI-H1734	0.468	0.487	0.338	0.454	0.374	0.522	0.461	0.497	0.518	0.496	0.826	0.817	0.933	0.813	0.656	0.388	0.445	0.49	0.433	0.381
SK-MES-1	0.33	0.306	0.208	0.199	0.187	0.399	0.414	0.36	0.248	0.257	1.24	1.1	1.27	1.26	1.2	0.411	0.367	0.516	0.328	0.339
NCI-H1792	0.469	0.92	0.68	0.794	0.569	0.505	0.599	0.514	0.558	0.472	0.59	0.823	0.579	0.564	0.585	0.782	0.789	0.938	0.747	0.81
EKVX	0.492	0.549	0.348	0.436	0.341	0.323	0.341	0.334	0.294	0.316	0.913	0.904	0.961	0.928	0.627	0.572	0.544	0.615	0.336	0.479
EPLC-272H	0.277	0.293	0.293	0.271	0.291	0.35	0.354	0.366	0.435	0.333	1.24	1.05	1.19	1.12	1.05	0.328	0.382	0.419	0.299	0.297
LK-2	0.277	0.294	–	0.273	0.283	0.357	0.239	–	0.407	0.343	0.835	0.844	0.823	0.8	0.592	0.289	0.198	0.318	0.341	0.254
CAL-12T	0.315	0.478	0.273	0.375	0.305	–	–	–	–	–	1.17	1.05	1.14	1.3	1.22	0.327	0.322	0.515	0.43	0.5
NCI-H322M	0.284	0.246	0.248	0.251	0.263	0.712	0.69	0.613	0.664	0.746	1.16	1.25	1.17	1.15	1.14	0.248	0.257	0.262	0.242	0.235
NCI-H1650	0.322	0.321	0.24	0.315	0.23	0.456	0.465	0.515	0.359	0.448	1.08	1.11	1.37	1.15	0.632	0.42	0.32	0.326	0.235	0.23
NCI-H2342	0.358	0.316	0.324	0.304	0.327	0.802	0.764	0.658	0.668	0.618	–	–	–	–	–	0.257	0.322	0.351	0.325	0.321
SW 1573	0.508	0.475	0.503	0.324	0.376	0.462	0.6	0.537	0.261	0.38	1.11	0.927	0.987	0.889	0.902	0.524	0.448	0.735	0.593	0.42
NCI-H2405	0.25	0.201	0.199	0.245	0.217	0.751	0.752	0.644	0.838	0.691	1.13	0.882	0.907	0.778	0.776	0.182	0.228	0.228	0.205	0.209
LCLC-103H	0.371	0.388	0.393	0.535	0.309	0.693	0.707	0.692	0.795	0.679	–	–	–	–	–	0.43	0.508	0.55	0.436	0.489
HCC-44	–	–	–	–	–	1.07	0.927	0.978	0.98	0.91	0.864	0.836	1.02	0.929	0.866	–	–	–	–	–
RERF-LC-KJ	0.808	0.829	0.726	0.687	0.668	0.757	0.739	0.692	0.573	0.521	0.952	0.722	1.31	1.13	0.741	0.767	0.881	0.856	0.849	0.382

Cell Line	relative viability (Idelalisib + Dasatinib; first compound 0.04 µM)	relative viability (Idelalisib + Dasatinib; first compound 0.1265 µM)	relative viability (Idelalisib + Dasatinib; first compound 0.4 µM)	relative viability (Idelalisib + Dasatinib; first compound 1.265 µM)	relative viability (Idelalisib + Dasatinib; first compound 4 µM)	relative viability (Idelalisib + Decitabine; first compound 0.04 µM)	relative viability (Idelalisib + Decitabine; first compound 0.1265 µM)	relative viability (Idelalisib + Decitabine; first compound 0.4 µM)	relative viability (Idelalisib + Decitabine; first compound 1.265 µM)	relative viability (Idelalisib + Decitabine; first compound 4 µM)	relative viability (Pemetrexed + Navitoclax; first compound 0.002 µM)	relative viability (Pemetrexed + Navitoclax; first compound 0.006325 µM)	relative viability (Pemetrexed + Navitoclax; first compound 0.02 µM)	relative viability (Pemetrexed + Navitoclax; first compound 0.06325 µM)	relative viability (Pemetrexed + Navitoclax; first compound 0.2 µM)	relative viability (Pemetrexed + Dasatinib; first compound 0.002 µM)	relative viability (Pemetrexed + Dasatinib; first compound 0.006325 µM)	relative viability (Pemetrexed + Dasatinib; first compound 0.02 µM)	relative viability (Pemetrexed + Dasatinib; first compound 0.06325 µM)	relative viability (Pemetrexed + Dasatinib; first compound 0.2 µM)
NCI-H1975	0.363	0.436	0.263	0.402	0.293	0.393	0.374	0.373	0.383	0.381	–	1.19	1.1	1.1	0.731	0.249	0.333	0.429	0.342	0.275
IA-LM	–	–	–	–	–	–	–	–	–	–	0.773	0.798	0.856	0.711	0.483	–	–	–	–	–
LCLC-97TM1	0.938	0.846	0.807	0.946	0.88	0.254	0.223	0.269	0.262	0.226	0.393	0.279	0.674	0.375	0.394	0.743	0.892	0.967	0.797	0.588
NCI-H520	0.201	0.158	0.126	0.209	0.147	0.506	0.386	0.45	0.502	0.431	0.963	1.08	1.25	1.11	1.08	0.235	0.224	0.208	0.203	0.235
A-427	0.783	0.685	0.568	0.704	0.671	0.57	0.564	0.545	0.562	0.507	0.891	0.979	0.978	1.04	0.954	0.618	0.696	0.711	0.689	0.664
ABC-1	0.537	0.599	0.582	0.681	0.573	1.03	1.2	1.08	1.17	1.15	–	–	–	–	–	0.785	0.591	0.626	0.546	0.422
NCI-H460	0.571	0.535	0.405	0.5	0.428	0.382	0.562	0.448	0.466	0.503	0.945	1.1	1.33	0.388	0.0669	0.357	0.536	0.524	0.406	0.101
NCI-H1395	0.417	0.369	0.375	0.385	0.366	0.724	0.657	0.726	0.712	0.607	1.06	1.14	1.24	1.11	1.11	0.441	0.471	0.481	0.369	0.401
EBC-1	–	–	–	–	–	–	–	–	–	–	0.396	0.42	0.474	0.397	0.507	–	–	–	–	–
NCI-H358	0.167	0.165	0.13	0.143	0.173	0.237	0.216	0.191	0.202	0.21	–	–	–	–	–	0.145	0.176	0.205	0.167	0.165
NCI-H2228	0.562	0.586	0.408	0.507	0.524	–	–	–	–	–	0.739	0.87	0.964	0.696	0.368	0.444	–	0.472	0.337	0.2
NCI-H650	0.498	0.438	0.432	0.481	0.394	0.345	0.324	0.344	0.348	0.28	–	–	–	–	–	0.408	0.469	0.431	0.444	0.481
A549	–	–	–	–	–	0.263	0.281	0.21	0.345	0.247	1.11	1.13	1.25	1.22	1.12	–	–	–	–	–
NCI-H1563	0.473	0.491	0.472	0.496	0.388	–	–	–	–	–	–	–	–	–	–	0.24	0.453	0.486	0.426	0.492
NCI-H1703	–	–	–	–	–	–	–	–	–	–	1.04	0.967	1.86	1.24	1.09	–	–	–	–	–
NCI-H1299	–	–	–	–	–	–	–	–	–	–	1.05	0.981	1.1	1.04	1	–	–	–	–	–
NCI-H661	1.1	0.969	0.673	1.08	0.673	0.616	0.583	0.543	0.6	0.542	–	–	–	–	–	0.882	0.84	0.958	0.945	0.827
NCI-H522	1.08	0.814	0.894	0.895	0.791	0.665	0.67	0.645	0.631	0.698	–	–	–	–	–	0.881	0.822	0.967	0.848	0.933
NCI-H1648	–	–	–	–	–	0.512	0.58	0.536	0.507	0.429	–	–	–	–	–	–	–	–	–	–
NCI-H1623	0.505	0.559	0.52	0.517	0.602	–	–	–	–	–	–	–	–	–	–	0.511	0.539	0.458	0.517	0.509
